Source: patent US20090099167A1, “Organic compounds” (Novartis Institutes for Biomedical Research, priority 2004, published 2009)

Target: T1, human EphB4 receptor (Homo sapiens, UniProt P54760)
T1 construct: made in house; host or cells: Sf9 or Sf21 (baculovirus)
T1 sequence (P54760 566-987): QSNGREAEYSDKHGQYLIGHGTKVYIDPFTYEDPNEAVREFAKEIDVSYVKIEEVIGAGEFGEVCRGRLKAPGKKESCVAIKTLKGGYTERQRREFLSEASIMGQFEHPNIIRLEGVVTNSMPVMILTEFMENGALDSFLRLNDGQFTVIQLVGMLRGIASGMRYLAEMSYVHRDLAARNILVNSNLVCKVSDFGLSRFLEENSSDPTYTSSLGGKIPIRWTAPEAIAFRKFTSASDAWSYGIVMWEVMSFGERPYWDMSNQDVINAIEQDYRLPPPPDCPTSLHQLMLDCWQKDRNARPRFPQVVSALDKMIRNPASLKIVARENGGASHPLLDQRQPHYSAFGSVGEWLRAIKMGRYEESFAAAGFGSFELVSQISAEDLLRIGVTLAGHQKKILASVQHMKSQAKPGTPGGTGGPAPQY
Assay: EphB4 kinase assay, GST-EphB, 33P incorporation into poly(Glu,Tyr)
Assay type: biochemical
Conditions: Table 5; read-out: EphB4, IC50 class
Excerpt: EphB4: Production and measure of enzymatic activity: Generation of Bac-to-Bac™ (Initrogen Life Technologies, Basel, Switzerland) GST-fusion expression vectors: Entire cytoplasmatic coding regions of the EphB-class are amplified by PCR from cDNA libraries derived from human placenta or brain, respectively. Recombinant baculovirus are generated that express the amino acid region 566-987 of the human EphB4 receptor (SwissProt Database, Accession No. P54760). GST sequence is cloned into pFastBac1® vector (Invitrogen Life Technologies, Basel, Switzerland) and PCR amplified. cDNAs encoding EphB4-receptor domains, respectively, are cloned in frame 3′prime to the GST sequence into this modified FastBac1 vector to generate pBac-to-Bac™ donor vectors. Single colonies arising from the transformation are inoculated to give overnight cultures for small scale plasmid preparation. […] By automated sequencing the inserts and approximately 50 bp of the flanking vector sequences are confirmed on both strands. Production of viruses: Viruses for each of the kinases are made according to the protocol supplied by GIBCO if not stated otherwise. In brief, transfer vectors containing the kinase domains are transfected into the DH10Bac cell line (GIBCO) and plated on selective agar plates. Colonies without insertion of the fusion sequence into the viral genome (carried by the bacteria) are blue. Single white colonies are picked and viral DNA (bacmid) isolated from the bacteria by standard plasmid purification procedures. Sf9 cells or Sf21 cells are then transfected in 25 cm2 flasks with the viral DNA using Cellfectin reagent according to the protocol. Purification of GST-tagged kinases: The centrifuged cell lysate is loaded onto a 2 mL glutathione-sepharose column (Pharmacia) and washed three times with 10 mL of 25 mM Tris-HCl, pH 7.5, 2 mM EDTA, 1 mM DTT, 200 mM NaCl. The GST-tagged proteins are then eluted by 10 applications (1 mL each) of 25 mM Tris-HCl, pH 7.5, 10 mM reduced-glutathione, 100 mM NaCl, 1 mM DTT, 10% Glycerol and stored at −70° C. Protein kinase assays: The activities of protein kinases are assayed in the presence or absence of inhibitors, by measuring the incorporation of 33P from [γ33P]ATP into a polymer of glutamic acid and tyrosine (poly(Glu,Tyr)) as a substrate. The kinase assays with purified GST-EphB (30 ng) are carried out for 15-30 min at ambient temperature in a final volume of 30 μL containing 20 mM Tris.HCl, pH 7.5, 10 mM MgCl2, 3-50 mM MnCl2, 0.01 mM Na3VO4, 1% DMSO, 1 mM DTT, 3 μg/mL poly(Glu,Tyr) 4:1 (Sigma; St. Louis, Mo., USA) and 2.0-3.0 μM ATP (γ-[33P]-ATP 0.1 μCi). The assay is terminated by the addition of 20 μL of 125 mM EDTA. Subsequently, 40 μl of the reaction mixture are transferred onto Immobilon-PVDF membrane (Millipore, Bedford, Mass., USA) previously soaked for 5 min with methanol, rinsed with water, then soaked for 5 min with 0.5% H3PO4 and mounted on vacuum manifold with disconnected vacuum source. After spotting all samples, vacuum is connected and each well rinsed with 200 μl 0.5% H3PO4. Membranes are removed and washed 4× on a shaker with 1.0% H3PO4, once with ethanol. Membranes are counted after drying at ambient temperature, mounting in Packard TopCount96-well frame, and addition of 10 μL/well of Microscint™ (Packard). IC50 values are calculated by linear regression analysis of the percentage inhibition of each compound in duplicate, at four concentrations (usually 0.01, 0.1, 1 and 10 μM). One unit of protein kinase activity is defined as 1 nmole of 33P ATP transferred from [γ33P] ATP to the substrate protein per minute per mg of protein at 37° C. Compounds of formula I show EphB4 inhibition down to 10 nM, preferably IC50 values between 0.01-1.0 μM.

IC50	SMILES
< 1000 nM	COc1ccc(-c2cnn3c(N)c(-c4ccc(F)c(Cl)c4)c(C)nc23)cc1OC [Example 94, 6-(3-Chloro-4-fluoro-phenyl)-3-(3,4-dimethoxy-phenyl)-5-methyl-pyrazolo[1,5-a]pyrimidin-7-ylamine]
< 1000 nM	COc1ccc(-c2cnn3c(N)c(-c4ccc(F)c(Cl)c4)c(C)nc23)cc1 [Example 95, 6-(3-Chloro-4-fluoro-phenyl)-3-(4-methoxy-phenyl)-5-methyl-pyrazolo[1,5-a]pyrimidin-7-ylamine]
< 1000 nM	COc1ccc(-c2cnn3c(N)c(-c4ccc(F)cc4)c(C)nc23)cc1 [Example 96, 6-(4-Fluoro-phenyl)-3-(4-methoxy-phenyl)-5-methyl-pyrazolo[1,5-a]pyrimidin-7-ylamine]
< 1000 nM	Cc1nc2c(-c3cccc(N4CCN(CCO)CC4)c3)cnn2c(N)c1-c1ccc(F)cc1 [Example 97, 2-(4-{3-[7-Amino-6-(4-fluoro-phenyl)-5-methyl-pyrazolo[1,5-a]pyrimidin-3-yl]-phenyl}-piperazin-1-yl)-ethanol]
< 1000 nM	Cc1nc2c(-c3cccc(N4CCN(C)CC4)c3)cnn2c(N)c1-c1ccc(F)c(F)c1 [Example 98, 6-(3,4-Difluoro-phenyl)-5-methyl-3-[3-(4-methyl-piperazin-1-yl)-phenyl]-pyrazolo[1,5-a]pyrimidin-7-ylamine]
< 1000 nM	COc1ccc(-c2cnn3c(N)c(-c4ccc(F)c(F)c4)c(C)nc23)cc1OC [Example 99, 6-(3,4-Difluoro-phenyl)-3-(3,4-dimethoxy-phenyl)-5-methyl-pyrazolo[1,5-a]pyrimidin-7-ylamine]
< 1000 nM	Cc1nc2c(-c3cccc(N4CCN(CCO)CC4)c3)cnn2c(N)c1-c1ccc(F)c(Cl)c1 [Example 100, 2-(4-{3-[7-Amino-6-(3-chloro-4-fluoro-phenyl)-5-methyl-pyrazolo[1,5-a]pyrimidin-3-yl]-phenyl}-piperazin-1-yl)-ethanol]
< 1000 nM	Cc1nc2c(-c3cccc(N4CCN(CCO)CC4)c3)cnn2c(N)c1-c1ccc(F)c(F)c1 [Example 101, 2-(4-{3-[7-Amino-6-(3,4-difluoro-phenyl)-5-methyl-pyrazolo[1,5-a]pyrimidin-3-yl]-phenyl}-piperazin-1-yl)-ethanol]
< 1000 nM	Cc1nc2c(-c3cccc(N4CCC(N5CCCC5)CC4)c3)cnn2c(N)c1-c1cccc(Cl)c1 [Example 102, 6-(3-Chloro-phenyl)-5-methyl-3-[3-(4-pyrrolidin-1-yl-piperidin-1-yl)-phenyl]-pyrazolo[1,5-a]pyrimidin-7-ylamine]
< 1000 nM	Cc1nc2c(-c3cccc(N4CCC(N5CCCC5)CC4)c3)cnn2c(N)c1-c1ccc(F)cc1 [Example 103, 6-(4-Fluoro-phenyl)-5-methyl-3-[3-(4-pyrrolidin-1-yl-piperidin-1-yl)-phenyl]-pyrazolo[1,5-a]pyrimidin-7-ylamine]
< 1000 nM	Cc1nc2c(-c3cccc(N4CC[N+](C)([O-])CC4)c3)cnn2c(N)c1-c1ccc(F)cc1 [Example 106, 6-(4-Fluoro-phenyl)-5-methyl-3-[3-(4-methyl-4-oxy-piperazin-1-yl)-phenyl]-pyrazolo[1,5-a]pyrimidin-7-ylamine]
< 1000 nM	Cc1nc2c(-c3cccc([N+]4([O-])CC[N+](C)([O-])CC4)c3)cnn2c(N)c1-c1ccc(F)cc1 (stereo not drawn) [Example 107, 6-(4-Fluoro-phenyl)-5-methyl-3-[3-(4-methyl-1,4-dioxy-piperazin-1-yl)-phenyl]-pyrazolo[1,5-a]pyrimidin-7-ylamine]
